Data taken from patent US20240228497A1, “Pyrrolo[2, 3-b]Pyrazine-Based Bifunctional Compounds as HPK1 Degraders and the Use Thereof” (BeiGene, Ltd., priority 2021, published 2024).

Legend:
[1] = target: T1, HPK1 protein (Homo sapiens, UniProt Q92918); assay: HPK1 Protein Degradation Assay in Human PBMC (Western Blot); format: cell-based; conditions: 24 h compound incubation
T1 construct: host or cells: human PBMC (CD4+ and CD8+ T cells gated in the FACS assay)
Experimental: HPK1 Protein Degradation Assay in Human PBMC (Western Blot)
Human PBMCs (AllCells) was used in this study. Cells were thawed one day in advance and maintained in RPMI-1640 supplemented 10% fetal bovine serum (Thermo Fisher), 50 units/mL penicillin and streptomycin (Thermo Fisher) and the mixture was kept at 37° C. in a humidified atmosphere air containing 5% CO2. 3×10^6 PBMCs per well in 1 mL culture medium were seeded in the 12-well plate, and the cells were treated with an appropriate dilution series of compounds with a final concentration up to […]. After 24 h of compound incubation, the medium was aspirated, the cells were washed with PBS, and then 30 μL of 1X protein lysis buffer (Cell Signaling Technology) containing protease inhibitors (Merck) and phosphatase inhibitors (Sigma) was added. The cells were lysed. After centrifugation, the supernatants were quantified by BCA protein assay kit (Thermo Fisher). 4X loading Buffer (Thermo Fisher) was added to equal amounts of total protein from each sample and heated at 95° C. for 5 minutes. 30-50 μg of cell lysate was loaded onto a 4%-12% NuPAGE Bis-Tris Gel (Thermo Fisher) and electro-transferred to NC membranes (Thermo Fisher). The membranes were blocked for least 1 hour with blocking reagent (LI-COR), and then incubated overnight with anti-HPK1 (Cell Signaling Technology, 4472S) antibodies and as loading control anti-ß-actin (Cell Signaling Technology, 3700S) or anti-GAPDH (Cell Signaling Technology, 97166S) at 4° C. with gentle shaking. The membranes were washed three times with TBST, and incubated at least 1 hour at room temperature with anti-mouse or anti-rabbit secondary fluorescent antibody (Thermo Fisher, A32729; LI—COR, 926-32213). Then the membranes were washed three times in TBST, and one time in water. Immunoreactive bands were visualized by Odyssey CLx and analyzed by GraphPad Prism 8.

[2] = system: pSLP76 (S376) level in Jurkat cell line; assay: Cellular pSLP76(S376) HTRF Assay in Jurkat cells; format: cell-based; conditions: 2 h compound treatment, stimulated with 0.05 μg/mL anti-human CD3 (OKT3) for 30 min
Experimental: Cellular pSLP76(S376) HTRF Assay
Jurkat cell line was used in this study. Cells were maintained in RPMI 1640 supplemented with heat-inactivated 10% fetal bovine serum (Thermo Fisher), 50 units/mL penicillin and streptomycin (Thermo Fisher) and kept at 37° C. in a humidified atmosphere of 5% CO2 in air. Cells were reinstated from frozen stocks that were laid down within 30 passages from the original cells purchased. After cell starvation in the assay buffer (RPMI 1640 supplemented with heat-inactivated 0.1% fetal bovine serum) for 18 hours, cells were seeded into a round bottom 96-well plate at 150,000 cells per well density. Cells were treated with a 9-point dilution series of test compounds. The final compound concentration is from 0 to 2 μM. After 2 h compound treatment, cells were stimulated with 0.05 μg/mL anti-human CD3 (OKT3, Bioxcell) for 30 min at 37° C. Then the cells were lysed, and the pSLP76 (S376) level in the cell lysates was detected by HTRF kit (Cisbio). A total of 16 μL of cell lysate from each well of a 96-well plate was transferred to a 384-well small volume white assay plate. Lysate from each well was incubated with 2 μL of Eu^3+-cryptate (donor) labeled anti-phospho-SLP76 and 2 μL of D2 (acceptor) labeled anti-phospho-SLP76 antibodies (Cisbio) overnight in dark at room temperature. FRET signals (655 nm) were measured using a PHERAstar FSX reader (BMG Labtech). IC50 determination was performed by fitting the curve of percent inhibition versus the log of the inhibitor concentration using Dotmatics.

[3] = target: T2, HPK1 kinase (aa1-346, Life Technologies) (Homo sapiens, UniProt Q92918); assay: HPK Kinase Activity Assay at 1 mM ATP (TR-FRET); format: biochemical; conditions: HPK1 kinase 40 nM, 0.5 μM STK1 substrate, 60 min preincubation, read-out: Enzymatic activity IC50
T2 construct: HPK1 kinase (aa1-346, Life Technologies); purchased Life Technologies
T2 sequence (Q92918 1-346): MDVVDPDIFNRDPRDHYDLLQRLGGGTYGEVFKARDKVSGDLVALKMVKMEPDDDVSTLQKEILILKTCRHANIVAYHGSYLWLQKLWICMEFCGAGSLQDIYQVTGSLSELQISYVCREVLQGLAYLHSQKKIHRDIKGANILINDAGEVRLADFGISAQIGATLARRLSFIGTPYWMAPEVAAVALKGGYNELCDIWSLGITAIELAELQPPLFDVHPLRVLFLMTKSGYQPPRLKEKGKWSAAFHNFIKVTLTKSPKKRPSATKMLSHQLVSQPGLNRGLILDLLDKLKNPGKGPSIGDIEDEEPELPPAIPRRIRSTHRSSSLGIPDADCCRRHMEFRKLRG
Experimental: HPK Kinase Activity Assay at 1 mM ATP
Compounds disclosed herein were tested for inhibition of HPK1 kinase (aa1-346, Life Technologies) activity in assays based on the time-resolved fluorescence-resonance energy transfer (TR-FRET) methodology. The assays were carried out in 384-well low volume black plates in a reaction mixture containing HPK1 kinase (40 nM), 1 mM ATP, 0.5 μM STK1 substrate and 0-10 μM compound in buffer containing 50 mM HEPES, 0.01% BSA, 0.1 mM Orthovanadate, 10 mM MgCl2, 1 mM DTT, pH=7.0, 0.005% Tween-20. The kinase was incubated with the compounds disclosed herein or DMSO for 60 minutes at room temperature and the reaction was initiated by the addition of ATP and STK1 substrate. After reaction at room temperature for 120 minutes, an equal volume of stop/detection solution was added according to the manufacture's instruction (CisBio). The stop/detection solution contained STK Antibody—Cryptate and XL665-conjugated streptavidin in Detection Buffer. The TR-FRET signals (ratio of fluorescence emission at 665 nm over emission at 620 nm with excitation at 337 nm wavelength) were recorded on a PHERAstar FS plate reader (BMG Labtech). Phosphorylation of STK1 substrate led to the binding of STK Antibody—Cryptate to the biotinylated STK1 substrate, which places fluorescent donor (Eu^3+ crypate) in close proximity to the accepter (Streptavidin-XL665), thus resulting in a high degree of fluorescence resonance energy transfer. The inhibition of HPK1 in presence of increasing concentrations of compounds was calculated based on the ratio of fluorescence at 665 nm to that at 620 nm. IC50 determination was performed by fitting the curve of percent inhibition versus the log of the inhibitor concentration using Dotmatics.

T1 sequence (Q92918 whole entry): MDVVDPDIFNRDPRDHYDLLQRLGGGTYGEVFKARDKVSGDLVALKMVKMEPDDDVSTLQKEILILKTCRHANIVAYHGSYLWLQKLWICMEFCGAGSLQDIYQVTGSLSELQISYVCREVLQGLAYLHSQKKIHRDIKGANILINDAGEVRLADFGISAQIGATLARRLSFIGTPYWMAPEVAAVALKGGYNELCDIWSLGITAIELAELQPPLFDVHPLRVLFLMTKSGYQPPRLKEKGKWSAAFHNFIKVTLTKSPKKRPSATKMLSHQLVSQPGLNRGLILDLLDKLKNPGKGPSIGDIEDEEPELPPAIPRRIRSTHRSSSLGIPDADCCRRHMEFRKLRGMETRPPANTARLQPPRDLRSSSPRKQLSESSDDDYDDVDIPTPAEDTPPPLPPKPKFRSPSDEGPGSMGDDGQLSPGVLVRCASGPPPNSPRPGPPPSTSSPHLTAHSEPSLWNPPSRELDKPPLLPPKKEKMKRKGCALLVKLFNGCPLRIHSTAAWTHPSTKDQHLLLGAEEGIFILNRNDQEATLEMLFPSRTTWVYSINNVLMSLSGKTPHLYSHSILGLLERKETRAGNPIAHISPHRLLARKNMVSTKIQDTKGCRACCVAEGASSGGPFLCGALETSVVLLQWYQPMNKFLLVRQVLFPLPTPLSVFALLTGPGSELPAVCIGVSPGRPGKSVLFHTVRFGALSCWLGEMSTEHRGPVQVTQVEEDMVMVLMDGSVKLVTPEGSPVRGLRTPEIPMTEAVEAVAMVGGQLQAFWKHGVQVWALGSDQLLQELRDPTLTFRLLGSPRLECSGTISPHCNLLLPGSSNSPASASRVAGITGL

Row | Compound | DC50 [1] [nM] | Dmax [1] [%] | Protein degradation DC90 [1] [nM] | IC50 [2] [nM] | IC50 [3] [nM]
1 | Cc1cc(-c2c[nH]c3ncc(-c4cc(C)c5c(c4)CCN(CCC(=O)NCC4CCN(c6ccc(C7CCC(=O)NC7=O)cc6)CC4)C5)nc23)ccc1C(=O)N(C)C (stereo not drawn) [Example 2, 4-(2-(2-(3-(((1-(4-(2,6-dioxopiperidin-3-yl)phenyl)piperidin-4-yl)methyl)amino)-3-oxopropyl)-8-methyl-1,2,3,4-tetrahydroisoquinolin-6-yl)-5H-pyrrolo[2,3-b]pyrazin-7-yl)-N,N,2-trimethylbenzamide] | 87 | 91 | 294 | 515 | 253
2 | Cc1cc(-c2c[nH]c3ncc(-c4cc(C)c5c(c4)CCN(CCC(=O)NC4CCN(c6ccc(N7CCC(=O)NC7=O)cc6)CC4)C5)nc23)ccc1C(=O)N(C)C [Example 4, 4-(2-(2-(3-((1-(4-(2,4-dioxotetrahydropyrimidin-1(2H)-yl)phenyl)piperidin-4-yl)amino)-3-oxopropyl)-8-methyl-1,2,3,4-tetrahydroisoquinolin-6-yl)-5H-pyrrolo[2,3-b]pyrazin-7-yl)-N,N,2-trimethylbenzamide] | 59 | 95 | 817 | 459 | 140
3 | Cc1cc(-c2c[nH]c3ncc(-c4cc(C)c5c(c4)CCN(CCC(=O)N4CCN(c6ccc(N7CCC(=O)NC7=O)cc6)CC4)C5)nc23)ccc1C(=O)N(C)C [Example 3, 4-(2-(2-(3-(4-(4-(2,4-dioxotetrahydropyrimidin-1(2H)-yl)phenyl)piperazin-1-yl)-3-oxopropyl)-8-methyl-1,2,3,4-tetrahydroisoquinolin-6-yl)-5H-pyrrolo[2,3-b]pyrazin-7-yl)-N,N,2-trimethylbenzamide] | 23 | 97 | 215 | 193 | 61
